# Data from PMC10917340, “Coxsackievirus infection induces direct pancreatic β cell killing but poor antiviral CD8^+ T cell responses” (Science Advances, 2024).
# Where two headings read alike, the source gives them in different places.
# Key:
# HLA-A2 = target: T1, HLA-A2 (Homo sapiens, UniProt P04439, D140Y/D185E/D98H/E176V/E277Q/G131W/G231S/I119V/I121R/I166T/I218V/N151K/N90K/P208A/P217A/Q86G/Q94H/R138H/R169H); assay: In vitro HLA-I binding assay (bead-captured folded monomers)
# T1 construct: purchased ImmunAware
# circulating CD8+ T cells [1] = assay: Combinatorial HLA-A2 multimer (MMr) assay, validation round; assay type: cell-based, human; settings: HLA-A2 MMr+CD8+ out of total CD8+ T cells; donors/peptides with <3 MMr+ cells noted as 1.0E-7
# circulating CD8+ T cells [2] = assay: Combinatorial HLA-A2 multimer (MMr) assay, screening round; assay type: cell-based, human; settings: for Screening round % effector/memory median (range): HLA-A2, effector/memory (non CD45RA+CCR7+) fraction among MMr+CD8+ T cells; for Screening round Frequency median: HLA-A2 MMr+CD8+ T cells out of total CD8+ T cells, frozen/thawed PBMCs, CVB-seropositive healthy adults, median of donors
# [3] = in silico predicted HLA-A2-binding peptides, fig. S2D
Sequence,In vitro binding to HLA-A2 (in words) (HLA-A2),Screening round % effector/memory median (range) (circulating CD8+ T cells [2]),Screening round Frequency median (circulating CD8+ T cells [2]),In vitro binding to HLA-A2 (in words) (HLA-A2; [3]),further results
"GIIYIIYKL [previously reported CVB peptide, IEDB #20311]",did not confirm as binders,,,,
"IMIKSMPAL [CVB1-2-5 60-68, HLA-A2, in silico]",,26 (0-70) %,2.2 E-5,,Validation round Frequency median (circulating CD8+ T cells [1]): 1.0 E-7
KLPDALSQM,,,,did not confirm as binders,
VIASYPWPI,did not confirm as binders,,,,
VMGDALGSV [ZnT8245-253 peptide homologous to CVB1 150-158],,,,did not confirm as binders,
"VMIKSLPAL [CVB4-6 60-68, HLA-A2, in silico]",,20 (20-20) %,5.3 E-6,,
